# Test results taken from patent US20060211705A1, “'N-(2-chloro-6-methylphenyl)-2-[[6-[4-(2-hydroxyethyl)-1-piperazinyl]-2-methyl-4-pyrimidinyl]amino]-5-thiazolecarboxamides metabolites” (priority 2005, published 2006).
# Test: Metabolite profile of [14C] compound (I) in monkey liver microsome incubations
# Format: in vitro ADME, cynomolgus monkey
# Settings: (Ia) 20 μM, 15 min, 37° C., 2 mg/mL microsomal protein, 2.0 mM NADPH
# Procedure: The compound of formula (I) was used as the [^14C] compound (Ia) (30.4 μCi/mg, radiochemical purity 99.2%), as the monohydrate of the free base. The C-14 label was on the carbon in the 2-position of the thiazole ring.
# Freshly isolated rat hepatocyte preparations were prepared from one male Sprague-Dawley rat. Rat Hepatocytes were prepared according to a standard procedure (Seglen, PO. Preparation of isolated rat liver cells. Methods Cell Biol., 1976, 13: 29-83). Cryopreserved cynomolgus monkey hepatocytes (male, pooled, n=6) and human hepatocytes (3 individual preparation) were purchased from In Vitro Technologies (Baltimore, Md.). Microsomes from male SD Rats (pooled, n=200, 20 mg/mL) and male cynomolgus monkeys (pooled, n=8, 20 mg/mL) were obtained from Xenotech LLC, Kansas City, Kans. Human liver microsomes (male, pooled, n=38) were from BD-Gentest, Woburn, Mass.
# A 6 mM stock solution of the compound of formula (Ia) (the [^14C] of the compound of formula (I) was prepared at by dissolving 3.7 mg of the compound of formula (Ia) into 1:1 acetonitrile/DMSO. The 2 mM stock solution of the compound of formula (Ia) was obtained by diluting an aliquot of the 6 mM stock solution 3-fold with acetonitrile.
# Hepatocyte incubations were conducted at 37° C. for 3 h in a NAPCO CO2 6000 incubator (VWR Scientific Products) under a 5% CO2 atmosphere using an orbital shaker at 90 rpm. For each incubation, the final concentration of compound (Ia) was 20 μM and the hepatocyte concentrations were ˜2 million cells/mL. A control incubation, in the absence of hepatocytes, was also performed for 3 h. The incubations were stopped by adding one volume of ice-cold acetonitrile. Each 0.5 mL incubation contained 0.1 M potassium phosphate buffer (pH 7.4), 2.5 mM MgCl2, 2 mg/mL microsomal protein, and 2.0 mM NADPH. The final substrate concentration was 20 μM. The mixtures were incubated in a shaking water bath at 37° C. for 15 min. Control incubations in the absence of microsomes or NADPH were performed for each species. The reactions were stopped with the addition of 1 mL of ice-cold acetonitrile.
# HPLC was performed on a Waters Alliance™ system equipped with Waters 2695 pumps and a photodiode array detector (Waters 2996). A Phenomenex Synergy Polar-RP® column (4.6×250 mm, 5 micron) was used for metabolite separation. All HPLC analyses were performed at 1 mL/min flow rate at room temperature. Two HPLC mobile phase and gradient systems were used because all metabolites could not be completely separated on either of the individual HPLC systems. The first system consisted of (A) water with 0.1% formic acid and (B) acetonitrile with 0.1% formic acid as mobile phase. The linear gradient was as follows: 0 min, 20% B; 1 min, 20% B; 41 min, 35% B; 42 min, 90% B; 44 min, 90% B. The column was re-equilibrated at 20% B for 6 min before the next injection. The second HPLC system was used to separate certain co-eluting metabolites that could not be separated by the first system. The mobile phase consisted of (A) water with 0.1% triflouroacetic acid (TFA) and (B) acetonitrile with 0.1% TFA. The gradient was as follows: 0 min, 20% B; 1 min, 20% B; 51 min, 35% B; 52 min, 90% B; 54 min 90% B. The column was equilibrated at 20% B for 6 min prior to the next injection.
# On-line radioactivity detection (RAD) was conducted using an INUS β-RAM detector (Model 3, INUS, Tampa, Fla.). The β-RAM was operated with a 500 μL liquid flow cell in the homogeneous liquid scintillation counting mode. A flow rate of 2 mL/min of scintillation cocktail was mixed with the HPLC effluent. The effluent from HPLC was split to the β-RAM detector (90%) and the mass spectrometer (10%) by adjusting the length and diameter of post column tubings. The β-RAM detector provided integrated output detailing the percentage and amount of radioactivity under each radioactive peak.
# Hepatocyte and liver microsomal incubations were quenched with acetonitrile and were vortex-mixed for 3 min. […]
row,SMILES,"% of Radioactivity in Microsomes, Monkey [%]"
1,Cc1nc(Nc2ncc(C(=O)Nc3c(C)cccc3Cl)s2)cc(N2CCNCC2)n1 [M4 (II)],5.8
2,Cc1nc(Nc2ncc(C(=O)Nc3c(C)cc(O)cc3Cl)s2)cc(N2CCN(CCO)CC2)n1 [M20 (V)],30.0
3,"Cc1nc(Nc2ncc(C(=O)Nc3c(C)cccc3Cl)s2)cc(N2CCN(CC(=O)O)CC2)n1 [M6 (IV), 2-(4-(6-(5-((2-Chloro-6-methylphenyl)carbamoyl)thiazol-2-ylamino)-2-methylpyrimidin-4-yl)piperazin-1-yl)acetic acid]",2.1
4,"Cc1nc(Nc2ncc(C(=O)Nc3c(Cl)cccc3CO)s2)cc(N2CCN(CCO)CC2)n1 [M24 (VI), N-(2-chloro-6-(hydroxymethyl)phenyl)-2-(6-(4-(2-hydroxyethyl)piperazin-1-yl)-2-methylpyrimidin-4-ylamino)thiazole-5-carboxamide]",30.0
5,Cc1nc(Nc2ncc(C(=O)Nc3c(C)cccc3Cl)s2)cc(N2CC[N+]([O-])(CCO)CC2)n1 [M5 (III)],8.6
6,"Cc1nc(Nc2ncc(C(=O)Nc3c(C)cccc3Cl)s2)cc(N2CCN(CCO)CC2)n1 [Parent (I), N-(2-Chloro-6-methylphenyl)-2-[[6-[4-(2-hydroxyethyl)-1-piperazinyl]-2-methyl-4-pyrimidinyl]amino]-5-thiazolecarboxamide]",27.7
